In paper PMC12264943, “Identification of New Human P2X7 Antagonists Using Ligand- and Structure-Based Virtual Screening” (Journal of Chemical Information and Modeling, 2025):

Legend:
Assay type in all cases: cell-based
[1] = target: T1, hP2X7 (Homo sapiens, UniProt Q99572); assay: Membrane Potential Red (MPR) dye assay, HEK-293 cells stably transfected with hP2X7; conditions: HEK293, 1 mM ATP, hP2X7 HEK-293
T1 construct: expressed in transfected cells; host or cells: HEK-293, stably transfected (gift of E. Adinolfi's group, Ferrara University)
T1 sequence (Q99572 1-595): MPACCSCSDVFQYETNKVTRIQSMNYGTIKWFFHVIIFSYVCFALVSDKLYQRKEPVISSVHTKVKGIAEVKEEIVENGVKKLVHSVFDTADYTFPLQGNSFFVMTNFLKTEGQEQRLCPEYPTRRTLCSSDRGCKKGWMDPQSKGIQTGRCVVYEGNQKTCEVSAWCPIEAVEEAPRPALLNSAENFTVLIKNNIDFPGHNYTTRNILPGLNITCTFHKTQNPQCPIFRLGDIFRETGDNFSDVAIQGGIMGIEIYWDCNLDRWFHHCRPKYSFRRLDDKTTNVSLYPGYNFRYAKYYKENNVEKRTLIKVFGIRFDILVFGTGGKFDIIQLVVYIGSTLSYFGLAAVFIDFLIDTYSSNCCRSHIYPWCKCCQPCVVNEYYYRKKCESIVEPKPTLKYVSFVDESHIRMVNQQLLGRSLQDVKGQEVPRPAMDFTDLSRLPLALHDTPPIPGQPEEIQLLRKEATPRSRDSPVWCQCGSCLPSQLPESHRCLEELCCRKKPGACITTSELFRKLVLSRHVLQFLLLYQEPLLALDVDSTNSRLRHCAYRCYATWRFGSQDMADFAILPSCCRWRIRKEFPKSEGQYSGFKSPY
Protocol: (§1) Astrocytoma 1321 N1 (established by Dr. Gaia Pasqualetto) and HEK-293 (kindly gifted by E. Adinolfi’s group, Ferrara University) both stably transfected with hP2X7, were used to assess the activity of the small molecules selected from the VS. Cells were maintained in DMEM:F12 (PanBiotech) supplemented with 10% FBS, 1% pen-strep, and 150 μg/mL G418 (PanBiotech).
Cells were plated as described for the YO-PRO 1 dye uptake assay. MPR dye (Molecular Devices) was prepared following the manufacturer’s protocol and diluted 1:10 in ECS-LD buffer. After washing with DPBS, cells were incubated with the dye for 30 min at 37 °C. Fluorescence changes (excitation: 525 nm; emission: 560 nm) were recorded using a Clariostar plate reader during ATP-induced membrane depolarization. Baseline fluorescence was recorded for 5 cycles, and ATP was added via an automated injector (10 μL). Membrane depolarization was quantified as the ratio of the maximal fluorescence change over baseline intensity (Δ(F max–F0)/F0)).
(§2) 4 Evaluation of compound 2 and 9 analogue activity using YO-PRO 1 and MPR assays. The activity of compound 2 (A and B) and 9 (C and D) analogues was evaluated in YO-PRO 1 (A and C) and MPR (B and D) assays. The compounds were tested at 10 μM and preincubated for either 20 (YO-PRO 1) or 30 min (MPR). The baseline was recorded for 5 cycles before ATP treatment (1 mM). Fluorescence was recorded for 25 (YO-PRO 1) or 5 min (MPR). The data were normalized by setting as 100% for the fluorescence measured from hP2X7 HEK-293 cells incubated with vehicle (0.1% DMSO) and treated with 1 mM ATP and 0% for the fluorescence recorded by the cells not treated with ATP. The data shown correspond to three independent biological replicates (3 technical replicates per experiment; error bars represent the SEM from the mean values of each biological replicate (n = 3)). The statistical analysis was performed with one-way Anova using Dunnett’s function (P**** < 0.0001; P*** < 0.0003; P** < 0.002; P* < 0.02).

[2] = system: HEK-293 WT cells; assay: Cytotoxicity assay (CellTiter Blue); conditions: 10 μM, 24 h, nontransfected HEK-293 cells
Protocol: HEK-293 WT cells were seeded at 4 × 10^4 cells/well in 96-well plates precoated with poly-L-lysine. After 24 h, the cells were washed with DPBS and treated with test compounds (10 μM) in 2% FBS-containing medium for 24 h. After this, the medium containing the test compounds was replaced with 20% CellTiter-Blue reagent (Promega) in 2% FBS medium. After a 2-h incubation, fluorescence (excitation: […]; emission: […]) was measured using a Clariostar plate reader. Data were normalized to untreated control cells (100%) and wells without cells (0%).
5 Concentration inhibition curve determination for compound 2g (A) and evaluation of cytotoxicity for compounds 2, 9, and 2g. […] The data on the graph represent the mean from three independent experiments (n = 3 replicates per experiment). (B) The cytotoxicity of the compounds was evaluated on nontransfected HEK-293 cells using a CellTiter Blue assay. The cells were incubated for 24 h with the compounds at 10 μM. The fluorescent signal obtained from vehicle-treated cells (0.1% DMSO) was used to normalize the data to 100%, and the one obtained from wells not containing cells (BLANK) was set as 0%. The data are the combination of three biological replicates (error bars represent the SEM (n = 3)) analyzed by one-way ANOVA using Dunnet’s function (P**** < 0.0001; **< 0.002; * < 0.02; ns, non significant).
The potential cytotoxicity of the hit compounds identified, 2, 9, and 2g, was assessed at 10 μM by CellTiter Blue assay using nontransfected HEK-293 cells (Figure B).

[3] = target: T1, hP2X7; assay: YO-PRO 1 dye uptake assay, HEK-293 cells stably transfected with hP2X7
Protocol: as §1
Astrocytoma 1321 N1 cells (2–2.5 × 10^4 cells/well) and HEK-293 cells (4–5 × 10^4 cells/well) expressing hP2X7 were seeded in poly-L-lysine-coated 96-well plates (Sarstedt) 24 h before the experiment. YO-PRO 1 dye was prepared at 5 μM in extracellular solution with low divalent cations (ECS-LD) buffer (147 mM NaCl, 10 mM HEPES, 13 mM glucose, 0.2 mM CaCl2, 2 mM KCl, pH 7.4) and added to cells after washing them with Dulbecco’s phosphate- buffered saline (DPBS) (PanBiotech) and incubated for 20 min at 37 °C. ATP-induced dye uptake, mediated by hP2X7 activation, was monitored using a Clariostar plate reader (excitation: 485 nm; emission: 538 nm) for 30 cycles (75–150 s/cycle), after recording the baseline for five cycles. hP2X7 activation was quantified at cycle 10 by calculating the fluorescence intensity (FI) ratio (Δ(Fcycle 10–F cycle 1)/cycle time).
Compounds 2 and 9, identified as hits, were further evaluated for concentration-dependent inhibition (IC50) of hP2X7 activation in the YO-PRO 1 dye uptake assay using HEK-293 cells stably transfected with hP2X7 (unfortunately, at this point in the study, the stably transfected 1321N1 cells lost P2X7 expression, and we were unable to recover them from frozen aliquots), for which the ATP EC50 was determined to be approximately 1 mM (Supporting material Figure 4C). Seven concentrations (100 to 0.03 μM) were tested, but due to precipitation at 100 μM, the DMSO concentration was increased to 1%.
3 Inhibitory concentration response evaluation of compounds 2 and 9 and their groups highlighted for SAR. […] Compound activity was evaluated along a time of 20 min (75 s per cycle) after ATP addition (700 μM). The fluorescence intensity (FI) values of the first 10 cycles were considered for assessing their ability to inhibit hP2X7. The curves represent three biological replicates (n = 4 per replicate). Data were normalized by setting as 100% the FI recorded by hP2X7 HEK-293 cells incubated in 1% DMSO and stimulated by ATP, and as 0% the FI recorded by the same cells but treated with ECS-LD (assay buffer). (C) Highlighted areas of compound 2 considered for SAR study. R1 refers to the ethyl-benzyl group of the molecules, and R2 and R3 refer to the benzo-(1,3)-dioxol groups. (D) Highlighted areas of compound 9 considered for SAR study. We have defined the area highlighted in yellow and numbered as 1 as the “front” region of the molecule and the one colored in pink and named as 2 as the “back” region of the molecule. L highlights the urea and amide linkers of compounds 2 and 9, respectively.
as §2

O=C(Nc1ccc2c(c1)OCO2)NC(Cc1ccc(F)cc1)Cc1ccc(F)cc1 [Compound 2g]
inhibition at 10 µM [1]: 70%
reduction in cell viability [2]: ~10%
IC50 ([3]; YO-PRO 1 dye uptake, hP2X7 HEK-293 cells, 100 to 0.03 μM, 1% DMSO, read-out: IC50, inhibition of hP2X7 activation): 1310 nM
hP2X7 inhibition in YO-PRO 1 dye uptake, SAR ([3]; analogues at 10 μM, 1 mM ATP): retained potency comparable to that of the hit compound
reduction of hP2X7 activity ([3]; analogues at 10 μM, YO-PRO 1, 1 mM ATP, 0.1% DMSO): 80%
